Assay type: physicochemical
Source text: The “solubility” in this description means the limit of dissolving of a solute in a solvent; it can be expressed as the concentration of a solute in a saturated solution. The solubility of the oxidized pyrroloquinoline quinone derivative or a salt thereof can be appropriately decided depending on the temperature of the mixture.

SMILES: O=C([O-])c1cc(C(=O)[O-])c2c(n1)C(=O)C(=O)c1cc(C(=O)O)[nH]c1-2.[Na+].[Na+] [oxidized pyrroloquinoline quinone disodium]
- solubility: 0.299 g with respect to 100 g of water

— patent US20150272881A1, “REDUCED PYRROLOQUINOLINE QUINONE GEL” (MITSUBISHI GAS CHEMICAL COMPANY, INC., priority 2011, published 2015)
